Source: patent publication EP2876105A1, “1-(CYCLOALKYL-CARBONYL)PROLINE DERIVATIVE” (Sumitomo Dainippon Pharma Co., Ltd., priority 2012, dated 2014)
Read-outs that look alike come from different tables or passages of the source.

Assays:
human FXIa = human FXIa (Homo sapiens, UniProt P03951); experiment: In vitro activated factor XI (FXIa) inhibition test; format: biochemical
Method: To the substrate, S-2366 (pyroGlu-Pro-Arg-pNA•HCl) was added to a final concentration of 300 µmol/L. After the reaction had progressed, the absorbance at OD 405 nm was measured. […]

[1] = tested on: rabbit model with venous thrombus; experiment: Rabbit in vivo antithrombotic action evaluation test (venous thrombus model, thrombus weight); details: i.v.
Source text: A rabbit model with venous thrombus was produced by modifying the report of Wienen et al. (Wienen W. et al., J. Thromb. Haemost. 5:1237-1242 (2007)). A male rabbit (JW, 2-4 kg) was narcotized by inhalation of isoflurane (ISOFLU®, manufactured by DS Pharma Animal Health) (inductive anesthesia: 4%, continuous anesthesia: 1.5% to 2.5%). For intravenous administration of a test agent and blood collection, catheters were inserted into the left femoral vein and the left femoral artery. The left external jugular vein was exposed (2 cm) from a branch of the facial vein, the microvascular branch was then ligated, and a catheter was then inserted into the posterior facial vein. The external jugular vein (2 cm) exposed from each of an anterior facial vein branch and a facial vein branch was ligated with an artery clamp, and blood was then removed from a catheter left in the posterior facial vein. Blood in the blood vessel was washed with a normal saline, and 0.5% polidocanol (manufactured by Sigma) was injected into the blood vessel. It was then left for 5 minutes, so that the occurrence of a disorder in vascular endothelium was provoked. Thereafter, 0.5% polidocanol was removed, the inside of the blood vessel was then washed with a normal saline, and the artery clamp was then removed. The external jugular vein (2 cm) exposed from the facial vein branch, together with an injection needle 21G (manufactured by Terumo), was ligated with a silk thread, so that the inner diameter of the blood vessel was reduced to 0.8 mm. Twenty-five minutes after recirculation of the blood flow, the external jugular vein (2cm) exposed from the facial vein branch was excised, and the wet weight and dry weight of a thrombus formed in the blood vessel were measured. A test agent or a vehicle was administered to the rabbit 2 minutes before recirculation of the blood flow.

[2] = tested on: endogenous coagulation pathway; experiment: Activated partial thromboplastin time (aPTT) of blood sample from the rabbit venous thrombus test; format: in vivo; details: i.v.; for aPTT: blood collected 2 minutes after administration
Method: In order to measure the activated partial thromboplastin time (aPTT) of the blood sample, which was to be used as an indicator of an endogenous coagulation pathway, 2 minutes after the administration of the test agent or the vehicle, blood was collected, and plasma was then prepared using 3.2% sodium citrate. The prepared plasma was incubated at 37°C for 7 minutes, and an STA reagent Cephascreen (used for aPTT measurement; manufactured by Roche Diagnostics) was added in an equal amount to the resulting plasma, and the obtained mixture was further incubated for 3 minutes. Thereafter, STA calcium chloride (manufactured by Roche Diagnostics) was added in an equal amount to the resultant, and the time required until coagulation was then measured.

[3] = Ester metabolism stabilization test: human liver stabilization test; format: in vitro ADME; details: human liver S9 with NADPH, 37°C, 30 minutes
Method: A reaction solution prepared by mixing 5 µL of human liver S9 (manufactured by Xenotech, 20 mg/mL), 20 µL of 500 mmol/L Kpi (pH7.4), 40 µL of 5 mmol/L NADPH (manufactured by Oriental Yeast Co., Ltd.) aqueous solution, and 133 µL of ion exchange water was added to 2 µL of a DMSO solution containing 100 µmol/L test substance, and the thus obtained mixture was then incubated at 37°C for 30 minutes. After completion of the incubation, 600 µL of acetonitrile was added to the reaction solution, so that the metabolic reaction was terminated. The residual percentage of the test substance was measured using LC (LC-20A manufactured by Shimadzu Corporation) and -MS (API4000 manufactured by AB Sciex).

[4] = Ester metabolism stabilization test: stabilization in human plasma test; format: in vitro ADME; details: 37°C, 30 minutes
Method: 198 µL of human plasma (manufactured by Cosmo Bio) was added to 2 µL of a DMSO solution containing 100 µmol/L test substance, and the obtained mixture was then incubated at 37°C for 30 minutes. After completion of the incubation, 600 µL of acetonitrile was added to the reaction solution, so that the metabolic reaction was terminated. The residual percentage of the test substance was measured using LC (LC-20A manufactured by Shimadzu Corporation) and -MS (API4000 manufactured by AB Sciex).

[5] = 0.35 µg/mL human FXIa, substrate S-2366 300 µmol/L, 37°C, 10 minutes, OD 405 nm, read-out: FXIa inhibitory activity IC50

Chain of human FXIa (P03951 388-625 limits assumed): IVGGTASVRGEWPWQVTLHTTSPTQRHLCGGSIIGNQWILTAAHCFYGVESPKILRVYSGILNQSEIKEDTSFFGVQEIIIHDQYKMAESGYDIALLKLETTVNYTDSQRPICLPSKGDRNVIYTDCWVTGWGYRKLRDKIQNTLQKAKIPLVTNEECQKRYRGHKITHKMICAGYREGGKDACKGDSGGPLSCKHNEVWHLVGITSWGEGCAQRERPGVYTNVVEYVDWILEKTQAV
Chain of human FXIa (P03951 19-387 partner limits assumed): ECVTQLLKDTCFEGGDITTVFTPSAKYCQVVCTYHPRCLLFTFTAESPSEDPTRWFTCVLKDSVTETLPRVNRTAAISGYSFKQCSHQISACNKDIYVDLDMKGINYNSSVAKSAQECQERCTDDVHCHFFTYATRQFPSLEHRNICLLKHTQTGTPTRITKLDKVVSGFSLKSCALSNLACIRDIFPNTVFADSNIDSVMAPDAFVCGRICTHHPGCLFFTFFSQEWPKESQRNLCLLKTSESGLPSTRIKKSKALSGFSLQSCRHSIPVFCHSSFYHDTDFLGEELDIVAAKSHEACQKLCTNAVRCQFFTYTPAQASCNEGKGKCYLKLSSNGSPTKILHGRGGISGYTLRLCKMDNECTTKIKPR

| Molecule | Residual percentage (%) Human liver S9 [3] [%] | Residual percentage (%) Human plasma [4] [%] | IC50 (human FXIa; [5]) [nM] | also measured |
| --- | --- | --- | --- | --- |
| N[C@H](CF)[C@H]1CC[C@H](C(=O)N2CCC(C3CCCCC3)[C@H]2C(=O)Nc2ccc3oc(C(=O)O)cc3c2)CC1 (single isomer, unassigned) [compound 53] |  |  |  | IC50 (human FXIa): 34 nM; Thrombus (% inhibition) ([1]; dose 0.1 mg/kg): 25%; Thrombus weight ([1]; dose 0.1 mg/kg): 51.3 mg; Thrombus (% inhibition) ([1]; dose 0.3 mg/kg): 56%; Thrombus weight ([1]; dose 0.3 mg/kg): 30.3 mg; Thrombus (% inhibition) ([1]; dose 1.0 mg/kg): 79%; Thrombus weight ([1]; dose 1.0 mg/kg): 14.7 mg; Thrombus (% inhibition) ([1]; dose 3.0 mg/kg): 80%; Thrombus weight ([1]; dose 3.0 mg/kg): 14.0 mg; aPTT (% vehicle) ([2]; dose 0.1 mg/kg): 103%; aPTT ([2]; dose 0.1 mg/kg): 17.8 s; aPTT (% vehicle) ([2]; dose 0.3 mg/kg): 117%; aPTT ([2]; dose 0.3 mg/kg): 20.3 s; aPTT (% vehicle) ([2]; dose 1.0 mg/kg): 140%; aPTT ([2]; dose 1.0 mg/kg): 24.2 s; aPTT (% vehicle) ([2]; dose 3.0 mg/kg): 166%; aPTT ([2]; dose 3.0 mg/kg): 28.8 s |
| COCCCOC(=O)c1cc2cc(NC(=O)[C@@H]3[C@H](C4CCCCC4)CCN3C(=O)[C@H]3CC[C@H]([C@H](N)CF)CC3)ccc2o1 [compound 82] | 5.8 | 92 |  |  |
| CC(OC(=O)OC1CCCCC1)OC(=O)c1cc2cc(NC(=O)[C@@H]3[C@@H](c4ccccc4)CCN3C(=O)[C@H]3CC[C@H]([C@H](N)CF)CC3)ccc2[nH]1 (stereo partly drawn) [compound 120] | 4.9 | 65 |  |  |
| CCC(=O)OC(OC(=O)c1cc2cc(NC(=O)[C@@H]3[C@@H](c4ccccc4)CCN3C(=O)[C@H]3CC[C@H]([C@H](N)CF)CC3)ccc2[nH]1)C(C)C (stereo partly drawn) [compound 125] | 5.6 | 86 |  |  |
| CC(C)OC(=O)OC(C)OC(=O)c1cc2cc(NC(=O)[C@@H]3[C@H](C4CCCCC4)CCN3C(=O)[C@H]3CC[C@H]([C@H](N)CF)CC3)ccc2[nH]1 (stereo partly drawn) [compound 128] | 47 | 82 |  |  |
| N[C@H](CF)[C@H]1CC[C@H](C(=O)N2CC[C@@H](C3CCCCC3)[C@H]2C(=O)Nc2ccc3oc(C(=O)OCC4CCOCC4)cc3c2)CC1 [compound 141] | 17 | 94 |  | IC50 (human FXIa): 3450 nM |
| N[C@H](C(F)F)[C@H]1CC[C@H](C(=O)N2CC[C@@H](C3CCCCC3)[C@H]2C(=O)Nc2ccc3oc(C(=O)O)cc3c2)CC1 [compound 146] |  |  | 916 |  |
| CS(=O)(=O)NC(=O)c1ccc(NC(=O)[C@@H]2[C@H](C3CCCCC3)CCN2C(=O)[C@H]2CC[C@H]([C@H](N)CF)CC2)cc1 [compound 147] |  |  | 205 |  |
| COC(=O)Nc1nc2ccc(NC(=O)[C@@H]3[C@H](C4CCCCC4)CCN3C(=O)[C@H]3CC[C@H]([C@H](N)CF)CC3)cc2s1 [compound 148] |  |  | 140 |  |
| Cc1oc(=O)oc1COC(=O)c1cc2cc(NC(=O)[C@@H]3[C@@H](c4ccccc4)CCN3C(=O)[C@H]3CC[C@H]([C@H](N)CF)CC3)ccc2[nH]1 [compound 171] | 18 | <1 | 300 |  |
| N[C@H](CF)[C@H]1CC[C@H](C(=O)N2CC[C@@H](C3CCCCC3)[C@H]2C(=O)Nc2ccc3[nH]c(C(=O)O)c(Cl)c3c2)CC1 [compound 184] |  |  | 30 |  |
| COC1CCC([C@H]2CCN(C(=O)[C@H]3CC[C@H]([C@H](N)CF)CC3)[C@H]2C(=O)Nc2ccc3oc(C(=O)O)cc3c2)CC1 (stereo partly drawn) [compound 187] |  |  |  | IC50 (human FXIa): 285 nM |
| COCCOCCCOC(=O)c1cc2cc(NC(=O)[C@@H]3[C@H](C4CCC(OC)CC4)CCN3C(=O)[C@H]3CC[C@H]([C@H](N)CF)CC3)ccc2o1 (stereo partly drawn) [compound 196] |  |  |  | IC50 (human FXIa): 3500 nM |
| COC1CCC([C@@H]2CCN(C(=O)[C@H]3CC[C@H]([C@H](N)CF)CC3)[C@@H]2C(=O)Nc2ccc3oc(C(=O)OCC(C)C)cc3c2)CC1 (stereo partly drawn) [compound 201] | 45 | 85 | 4100 |  |
| CN(C)S(=O)(=O)NC(=O)c1cc2cc(NC(=O)[C@@H]3[C@H](C4CCCCC4)CCN3C(=O)[C@H]3CC[C@H]([C@H](N)CF)CC3)ccc2o1 [compound 211] |  |  | 29 |  |
| N[C@H](CF)[C@H]1CC[C@H](C(=O)N2CC[C@@H](C3CCCCC3)[C@H]2C(=O)Nc2ccc3oc(C(=O)NS(=O)(=O)N4CCOCC4)cc3c2)CC1 [compound 212] |  |  |  | IC50 (human FXIa): 8 nM |
| N[C@H](CF)[C@H]1CC[C@H](C(=O)N2CC[C@@H](C3CCCCC3)[C@H]2C(=O)Nc2ccc3[nH]c(C(=O)NS(=O)(=O)N4CCCCC4)cc3c2)CC1 [compound 213] |  |  | 10 |  |
| (1R)-1-([(1S)-1-(trans-4-{[(2S,3S)-3-Cyclohexyl-2-{[4-(1H-tetrazol-5-yl)phenyl]carbamoyl}pyrrolidin-1-yl]carbonyl}cyclohexyl)-2-fluoroethyl]carbamoyl}oxy)ethyl 2-methylpropanoate [Example 205] | 3.5 | 60 |  |  |
